Reference: ChEMBL document CHEMBL2086270, “Rational Design, Synthesis, and SAR of a Novel Thiazolopyrimidinone Series of Selective PI3K-beta Inhibitors” (ACS Med Chem Lett, 2012)

Assays:
[1] = target: Phosphatidylinositol 4,5-bisphosphate 3-kinase catalytic subunit alpha isoform (Homo sapiens, UniProt P42336); experiment: Inhibition of PI3K alpha by continuous TR-FRET assay
[2] = target: T1, Phosphatidylinositol 4,5-bisphosphate 3-kinase catalytic subunit beta isoform (Homo sapiens, UniProt P42338); experiment: Inhibition of PI3K beta by continuous TR-FRET assay
[3] = target: T2, Phosphatidylinositol 4,5-bisphosphate 3-kinase catalytic subunit delta isoform (Homo sapiens, UniProt O00329); experiment: Inhibition of PI3K delta by continuous TR-FRET assay
T2 sequence (O00329 whole entry): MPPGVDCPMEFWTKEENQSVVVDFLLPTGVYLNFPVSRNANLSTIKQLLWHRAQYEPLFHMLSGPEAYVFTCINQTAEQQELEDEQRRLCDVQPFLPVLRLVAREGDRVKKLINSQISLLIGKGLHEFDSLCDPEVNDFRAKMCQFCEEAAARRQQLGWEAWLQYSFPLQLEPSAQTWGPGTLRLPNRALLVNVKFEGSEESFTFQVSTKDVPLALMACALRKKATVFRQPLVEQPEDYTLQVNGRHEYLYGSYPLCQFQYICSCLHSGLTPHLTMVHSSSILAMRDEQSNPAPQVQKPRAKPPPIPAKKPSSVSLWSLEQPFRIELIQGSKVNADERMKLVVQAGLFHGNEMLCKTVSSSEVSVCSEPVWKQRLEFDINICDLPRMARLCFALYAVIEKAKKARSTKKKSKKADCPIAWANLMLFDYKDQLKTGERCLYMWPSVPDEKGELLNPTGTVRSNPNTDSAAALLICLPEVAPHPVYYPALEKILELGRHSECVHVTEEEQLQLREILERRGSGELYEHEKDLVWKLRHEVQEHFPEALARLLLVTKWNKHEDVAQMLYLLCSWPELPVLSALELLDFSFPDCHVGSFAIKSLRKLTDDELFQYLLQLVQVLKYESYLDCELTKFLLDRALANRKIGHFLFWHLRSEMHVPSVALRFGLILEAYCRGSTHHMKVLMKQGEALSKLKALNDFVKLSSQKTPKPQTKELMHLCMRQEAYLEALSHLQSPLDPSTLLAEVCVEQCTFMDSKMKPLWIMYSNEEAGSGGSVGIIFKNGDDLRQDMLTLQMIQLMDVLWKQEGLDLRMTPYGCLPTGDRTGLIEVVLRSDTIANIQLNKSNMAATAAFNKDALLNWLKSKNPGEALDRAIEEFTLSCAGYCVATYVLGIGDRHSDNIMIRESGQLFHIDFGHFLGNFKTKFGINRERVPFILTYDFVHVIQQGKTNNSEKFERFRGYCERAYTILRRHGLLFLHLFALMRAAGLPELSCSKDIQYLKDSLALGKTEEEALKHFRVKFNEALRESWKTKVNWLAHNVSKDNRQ

[4] = target: Phosphatidylinositol 4,5-bisphosphate 3-kinase catalytic subunit gamma isoform (Homo sapiens, UniProt P48736); experiment: Inhibition of PI3K gamma by continuous TR-FRET assay
[5] = target: T1, Phosphatidylinositol 4,5-bisphosphate 3-kinase catalytic subunit beta isoform; experiment: Inhibition of PI3K beta in human PTEN-deficient MDA-MB-468 cells assessed as inhibition of Akt Ser473 phosphorylation; type: cell-based
MDA-MB-468 = experiment: Antiproliferative activity against PTEN-deficient human MDA-MB-468 cells; type: functional
[6] = Half life in CD mouse at 0.3 mg/kg, iv; type: ADME, organism-based; parameters: dose 0.3 mg/kg, route intravenous; details: in vivo
[7] = Volume of distribution at steady state in CD mouse at 0.3 mg/kg, iv; type: ADME, organism-based; parameters: dose 0.3 mg/kg, route intravenous; details: in vivo, read-out: Vdss
[8] = Clearance in CD mouse at 0.3 mg/kg, iv; type: ADME, organism-based; parameters: dose 0.3 mg/kg, route intravenous; details: in vivo
Mus musculus = experiment: Dose normalized AUC in CD mouse at 100 mg/kg, po; type: ADME, organism-based; parameters: dose 100 mg/kg, route oral; details: in vivo
[9] = Oral bioavailability in CD mouse at 100 mg/kg; type: ADME, organism-based; details: in vivo

Chain of Phosphatidylinositol 4,5-bisphosphate 3-kinase catalytic subunit gamma isoform (P48736 whole entry, canonical isoform): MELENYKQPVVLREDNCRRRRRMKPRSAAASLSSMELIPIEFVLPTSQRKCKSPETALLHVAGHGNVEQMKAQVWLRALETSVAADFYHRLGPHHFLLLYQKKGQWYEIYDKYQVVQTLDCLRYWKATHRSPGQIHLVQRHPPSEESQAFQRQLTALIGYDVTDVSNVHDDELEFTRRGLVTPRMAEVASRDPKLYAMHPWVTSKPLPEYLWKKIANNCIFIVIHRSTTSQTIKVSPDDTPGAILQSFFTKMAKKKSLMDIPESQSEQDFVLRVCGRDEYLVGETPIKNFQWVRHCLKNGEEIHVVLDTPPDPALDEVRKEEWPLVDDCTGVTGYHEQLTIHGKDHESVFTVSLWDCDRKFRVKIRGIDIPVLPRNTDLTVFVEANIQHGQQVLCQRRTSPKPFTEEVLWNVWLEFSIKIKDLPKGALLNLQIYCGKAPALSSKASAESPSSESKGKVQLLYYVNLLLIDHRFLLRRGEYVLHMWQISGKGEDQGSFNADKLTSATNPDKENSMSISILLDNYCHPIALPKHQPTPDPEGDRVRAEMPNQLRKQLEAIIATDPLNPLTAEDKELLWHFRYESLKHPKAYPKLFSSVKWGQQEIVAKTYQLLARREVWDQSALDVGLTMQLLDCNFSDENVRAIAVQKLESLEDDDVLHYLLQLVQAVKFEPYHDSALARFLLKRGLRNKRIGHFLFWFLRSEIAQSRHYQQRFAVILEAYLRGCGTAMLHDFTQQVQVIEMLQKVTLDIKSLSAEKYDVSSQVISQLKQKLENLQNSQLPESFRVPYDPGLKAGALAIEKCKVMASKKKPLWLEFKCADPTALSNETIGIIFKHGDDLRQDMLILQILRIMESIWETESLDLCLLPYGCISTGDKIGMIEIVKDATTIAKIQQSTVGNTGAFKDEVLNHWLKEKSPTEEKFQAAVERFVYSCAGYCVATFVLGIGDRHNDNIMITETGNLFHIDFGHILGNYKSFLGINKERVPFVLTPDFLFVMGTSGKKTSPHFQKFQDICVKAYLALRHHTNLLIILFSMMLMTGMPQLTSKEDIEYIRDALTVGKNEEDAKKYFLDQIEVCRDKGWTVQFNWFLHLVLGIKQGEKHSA
T1 sequence (P42338 whole entry, canonical isoform): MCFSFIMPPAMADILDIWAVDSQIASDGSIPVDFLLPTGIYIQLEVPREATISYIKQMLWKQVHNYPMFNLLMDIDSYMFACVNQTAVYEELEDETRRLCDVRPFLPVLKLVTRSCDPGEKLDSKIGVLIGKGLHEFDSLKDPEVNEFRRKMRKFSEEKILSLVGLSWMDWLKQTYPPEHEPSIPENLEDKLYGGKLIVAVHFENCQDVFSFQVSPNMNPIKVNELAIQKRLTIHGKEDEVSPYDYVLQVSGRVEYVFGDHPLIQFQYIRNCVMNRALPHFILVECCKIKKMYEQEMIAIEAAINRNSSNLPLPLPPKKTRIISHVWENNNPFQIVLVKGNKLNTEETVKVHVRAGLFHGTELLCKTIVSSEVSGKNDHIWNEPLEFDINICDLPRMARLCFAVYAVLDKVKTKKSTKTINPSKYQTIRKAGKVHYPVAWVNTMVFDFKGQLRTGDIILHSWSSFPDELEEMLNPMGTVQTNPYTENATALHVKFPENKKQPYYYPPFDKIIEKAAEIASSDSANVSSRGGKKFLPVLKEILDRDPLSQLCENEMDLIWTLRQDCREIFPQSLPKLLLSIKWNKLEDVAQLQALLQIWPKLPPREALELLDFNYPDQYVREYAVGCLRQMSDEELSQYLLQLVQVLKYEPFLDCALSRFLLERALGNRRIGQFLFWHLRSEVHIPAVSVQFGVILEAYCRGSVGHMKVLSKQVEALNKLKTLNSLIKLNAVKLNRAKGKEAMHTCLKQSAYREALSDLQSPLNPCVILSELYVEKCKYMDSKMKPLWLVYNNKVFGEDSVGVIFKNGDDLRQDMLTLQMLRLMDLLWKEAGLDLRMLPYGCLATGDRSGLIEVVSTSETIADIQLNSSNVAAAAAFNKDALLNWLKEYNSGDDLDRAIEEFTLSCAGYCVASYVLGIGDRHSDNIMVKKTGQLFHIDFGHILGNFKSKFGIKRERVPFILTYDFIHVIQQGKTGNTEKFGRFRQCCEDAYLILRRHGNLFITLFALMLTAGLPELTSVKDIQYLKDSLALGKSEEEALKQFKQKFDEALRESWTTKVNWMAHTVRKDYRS
Chain of Phosphatidylinositol 4,5-bisphosphate 3-kinase catalytic subunit alpha isoform (P42336 whole entry, canonical isoform): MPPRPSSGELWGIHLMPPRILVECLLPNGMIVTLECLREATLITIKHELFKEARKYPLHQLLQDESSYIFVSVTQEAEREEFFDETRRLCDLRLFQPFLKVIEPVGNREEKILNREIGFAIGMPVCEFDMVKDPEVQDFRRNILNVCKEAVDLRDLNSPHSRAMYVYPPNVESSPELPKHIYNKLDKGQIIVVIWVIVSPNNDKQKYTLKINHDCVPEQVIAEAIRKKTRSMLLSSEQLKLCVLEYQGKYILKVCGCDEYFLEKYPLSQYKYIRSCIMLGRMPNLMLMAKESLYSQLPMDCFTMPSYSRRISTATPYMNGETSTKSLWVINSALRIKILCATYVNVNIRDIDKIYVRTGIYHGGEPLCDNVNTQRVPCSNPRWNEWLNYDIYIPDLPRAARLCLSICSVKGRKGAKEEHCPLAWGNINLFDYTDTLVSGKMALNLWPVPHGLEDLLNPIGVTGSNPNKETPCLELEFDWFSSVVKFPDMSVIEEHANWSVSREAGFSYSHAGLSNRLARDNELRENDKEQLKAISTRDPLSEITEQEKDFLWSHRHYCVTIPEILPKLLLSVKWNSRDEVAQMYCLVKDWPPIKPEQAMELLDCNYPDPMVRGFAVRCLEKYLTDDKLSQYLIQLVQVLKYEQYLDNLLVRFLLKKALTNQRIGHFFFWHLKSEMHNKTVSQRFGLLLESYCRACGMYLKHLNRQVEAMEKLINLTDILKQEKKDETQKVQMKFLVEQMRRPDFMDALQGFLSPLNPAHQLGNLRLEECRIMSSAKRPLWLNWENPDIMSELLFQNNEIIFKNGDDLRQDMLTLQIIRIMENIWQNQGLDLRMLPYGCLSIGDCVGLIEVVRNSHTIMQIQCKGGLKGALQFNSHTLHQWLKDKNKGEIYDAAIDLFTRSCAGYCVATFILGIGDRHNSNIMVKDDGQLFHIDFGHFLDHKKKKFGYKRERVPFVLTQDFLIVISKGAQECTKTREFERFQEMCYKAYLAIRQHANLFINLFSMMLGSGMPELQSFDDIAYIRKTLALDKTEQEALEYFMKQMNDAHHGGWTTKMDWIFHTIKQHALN

Row | IC50 [1] [nM] | IC50 [2] [nM] | IC50 [3] [nM] | IC50 [4] [nM] | EC50 [5] [nM] | GI50 (MDA-MB-468) [nM] | half-life [6] [h] | Vd [7] [L/kg] | clearance [8] [mL/min/kg] | AUC/dose (Mus musculus) | bioavailability [9] [%] | Structure (SMILES)
1 | 630 | 0.2 | 3 | 250 |  |  |  |  |  |  |  | Cc1c(Cn2c(CO)nc(=O)c3sc(N4CCOCC4)nc32)cccc1C(F)(F)F
2 | 4000 | 3 | 63 | 1600 |  |  |  |  |  |  |  | Cc1c(Cn2cnc(=O)c3sc(N4CCOCC4)nc32)cccc1C(F)(F)F
3 | 2000 | 0.5 | 10 | 1000 | 19 | 32 |  |  |  |  |  | Cc1c(Cl)cccc1Cn1c(C)nc(=O)c2sc(N3CCOCC3)nc21
4 | 500 | 0.1 | 2 | 250 | 6 | 8 | 1.9 | 3.35 | 29.4 | 264 ng/(hr.mL.mg.kg) | 21 | Cc1c(Cl)cccc1Cn1c(CO)nc(=O)c2sc(N3CCOCC3)nc21
5 | 1600 | 0.3 | 10 | 400 | 6 | 21 |  |  |  |  |  | COc1nc(=O)c2sc(N3CCOCC3)nc2n1Cc1cccc(Cl)c1C
6 | > 4000 | 400 | 500 | 5000 |  |  |  |  |  |  |  | CC(c1ccccc1)n1cnc(=O)c2sc(N3CCOCC3)nc21 (stereo not drawn)
7 | 250 | 0.2 | 3 | 500 | 3 | 26 |  |  |  |  |  | Cc1c(Cl)cccc1Cn1c(N)nc(=O)c2sc(N3CCOCC3)nc21
8 | 400 | 0.05 | 2 | 160 |  |  |  |  |  |  |  | Cc1c(Cl)cccc1Cn1c(SCC(=O)O)nc(=O)c2sc(N3CCOCC3)nc21
9 | 50000 | 8 | 500 | > 6300 |  |  |  |  |  |  |  | Cc1c(Cl)cccc1Cn1c(=O)[nH]c(=O)c2sc(N3CCOCC3)nc21
10 | > 3200 | 50 | 500 | 4000 |  |  |  |  |  |  |  | Cc1c(Cn2c(-c3ccccc3)nc(=O)c3sc(N4CCOCC4)nc32)cccc1C(F)(F)F
11 | > 2000 | 790 | 1000 | 3200 |  |  |  |  |  |  |  | O=c1ncn(CCc2ccccc2)c2nc(N3CCOCC3)sc12
12 | 2000 | 5 | 50 | > 3200 |  |  |  |  |  |  |  | Cc1c(Cl)cccc1Cn1c(=S)[nH]c(=O)c2sc(N3CCOCC3)nc21
13 | > 4000 | 0.5 | 13 | 1300 | 16 | 23 |  |  |  |  |  | CCc1nc(=O)c2sc(N3CCOCC3)nc2n1Cc1cccc(C(F)(F)F)c1C
14 | 2500 | 3 | 40 | 2500 |  |  |  |  |  |  |  | Cc1c(Cl)cccc1Cn1cnc(=O)c2sc(N3CCOCC3)nc21
15 | 2500 | 25 | 250 | 2500 |  |  |  |  |  |  |  | Cc1ccccc1Cn1cnc(=O)c2sc(N3CCOCC3)nc21
16 | 1000 | 10 | 79 | 1300 |  |  |  |  |  |  |  | O=c1ncn(Cc2cccc(Cl)c2Cl)c2nc(N3CCOCC3)sc12
17 | 3200 | 790 | 2500 | 4000 |  |  |  |  |  |  |  | O=c1ncn(Cc2ccsc2Cl)c2nc(N3CCOCC3)sc12
18 | 2000 | 0.3 | 10 | 2500 |  |  |  |  |  |  |  | CSc1nc(=O)c2sc(N3CCOCC3)nc2n1Cc1cccc(Cl)c1C
19 | 1300 | 0.5 | 16 | 1000 | 9 | 43 | 0.75 | 2.6 | 48.6 | 192 ng/(hr.mL.mg.kg) | 54 | Cc1c(Cn2c(C3CC3)nc(=O)c3sc(N4CCOCC4)nc32)cccc1C(F)(F)F
20 | 2500 | 3 | 63 | 2000 |  |  |  |  |  |  |  | Cc1c(Cn2c(Cc3ccccc3)nc(=O)c3sc(N4CCOCC4)nc32)cccc1C(F)(F)F
21 | > 2500 | 3 | 160 | > 7900 |  |  |  |  |  |  |  | Cc1c(Cn2c(CN)nc(=O)c3sc(N4CCOCC4)nc32)cccc1C(F)(F)F
22 | > 3200 | 79 | 320 | > 790 |  |  |  |  |  |  |  | O=c1ncn(Cc2cccc(Cl)c2)c2nc(N3CCOCC3)sc12
23 | 2500 | 160 | > 790 | 7900 |  |  |  |  |  |  |  | O=c1ncn(Cc2ccccc2Cl)c2nc(N3CCOCC3)sc12
24 | 7900 | 320 | 2000 | 6300 |  |  |  |  |  |  |  | O=c1ncn(Cc2ccccc2)c2nc(N3CCOCC3)sc12
